Results reported in PubChem BioAssay (NCI).
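Tested at 5 concentrations; 48 h exposure; 96-well plates; endpoints linearly interpolated, else capped at highest concentration. The concentration for full growth arrest is given as TGI.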

Assays:
Test in all cases: NCI tumour cell line growth inhibition, 48 h
[1] = tested on: 786-0 renal
[2] = tested on: A498 renal
[3] = tested on: A549 NSCLC
[4] = tested on: ACHN renal
[5] = tested on: BT-549 breast
[6] = tested on: CAKI-1 renal
[7] = tested on: CCRF-CEM leukemia
[8] = tested on: COLO 205 colon
[9] = tested on: DMS 114 small cell lung
[10] = tested on: DMS 273 small cell lung
[11] = tested on: DU-145 prostate
[12] = tested on: EKVX NSCLC
[13] = tested on: HCC-2998 colon
[14] = tested on: HCT-116 colon
[15] = tested on: HCT-15 colon
[16] = tested on: HL-60(TB) leukemia
[17] = tested on: HOP-18 NSCLC
[18] = tested on: HOP-62 NSCLC
[19] = tested on: HOP-92 NSCLC
[20] = tested on: HS 578T breast
[21] = tested on: IGROV1 ovarian
[22] = tested on: K-562 leukemia
[23] = tested on: KM12 colon
[24] = tested on: KM20L2 colon
[25] = tested on: LOX IMVI melanoma
[26] = tested on: LXFL 529 NSCLC
[27] = tested on: M14 melanoma
[28] = tested on: M19-MEL melanoma
[29] = tested on: MALME-3M melanoma
[30] = tested on: MCF7 breast
[31] = tested on: MDA-MB-231 breast
[32] = tested on: MOLT-4 leukemia
[33] = tested on: NCI-H226 lung
[34] = tested on: NCI-H23 lung
[35] = tested on: NCI-H460 lung
[36] = tested on: NCI-H522 lung
[37] = tested on: OVCAR-3 ovarian
[38] = tested on: OVCAR-4 ovarian
[39] = tested on: OVCAR-5 ovarian
[40] = tested on: OVCAR-8 ovarian
[41] = tested on: PC-3 prostate
[42] = tested on: RPMI-8226 leukemia
[43] = tested on: RXF 393 renal
[44] = tested on: SF-268 CNS
[45] = tested on: SF-295 CNS
[46] = tested on: SF-539 CNS
[47] = tested on: SK-MEL-2 melanoma
[48] = tested on: SK-MEL-28 melanoma
[49] = tested on: SK-MEL-5 melanoma
[50] = tested on: SN12C renal
[51] = tested on: SNB-19 CNS
[52] = tested on: SNB-78 CNS
[53] = tested on: SR leukemia
[54] = tested on: SW-620 colon
[55] = tested on: T-47D breast
[56] = tested on: TK-10 renal
[57] = tested on: U251 CNS
[58] = tested on: UACC-257 melanoma
[59] = tested on: UACC-62 melanoma
[60] = tested on: UO-31 renal
[61] = tested on: XF 498 CNS

COc1cc2c(c(OC)c1OC)-c1cccc(=O)cc1C(NC(C)=O)CC2 (stereo unspecified)
TGI [1]: > 63.1 µM | TGI [2]: 14.7 µM | TGI [3]: > 100 µM | TGI [4]: > 100 µM | TGI [5]: > 100 µM | TGI [6]: > 100 µM | TGI [7]: > 100 µM | TGI [8]: 1.79 µM | TGI [9]: 0.391 µM | TGI [10]: > 100 µM | TGI [11]: > 100 µM | TGI [12]: > 100 µM | TGI [13]: > 13.6 µM | TGI [14]: 25.6 µM | TGI [15]: > 100 µM | TGI [16]: 0.472 µM | TGI [17]: > 100 µM | TGI [18]: > 39.6 µM | TGI [19]: 4.92 µM | TGI [20]: > 100 µM | TGI [21]: > 100 µM | TGI [22]: > 100 µM | TGI [23]: 1.75 µM | TGI [24]: 1.86 µM | TGI [25]: > 100 µM | TGI [26]: > 100 µM | TGI [27]: > 67.8 µM | TGI [28]: > 100 µM | TGI [29]: > 100 µM | TGI [30]: > 100 µM | TGI [31]: > 100 µM | TGI [32]: > 100 µM | TGI [33]: 14.8 µM | TGI [34]: 11.1 µM | TGI [35]: 3.47 µM | TGI [36]: 0.203 µM | TGI [37]: 1.16 µM | TGI [38]: > 100 µM | TGI [39]: > 100 µM | TGI [40]: > 16.7 µM | TGI [41]: > 100 µM | TGI [42]: > 100 µM | TGI [43]: 0.952 µM | TGI [44]: > 100 µM | TGI [45]: 0.267 µM | TGI [46]: 0.229 µM | TGI [47]: > 24.8 µM | TGI [48]: > 100 µM | TGI [49]: 3.16 µM | TGI [50]: > 100 µM | TGI [51]: > 100 µM | TGI [52]: > 100 µM | TGI [53]: > 100 µM | TGI [54]: > 100 µM | TGI [55]: > 100 µM | TGI [56]: > 100 µM | TGI [57]: > 100 µM | TGI [58]: > 100 µM | TGI [59]: > 100 µM | TGI [60]: > 100 µM | TGI [61]: 12.3 µM
